According to ChEMBL document CHEMBL1122227, “Synthesis and antiarrhythmic and parasympatholytic properties of substituted phenols. 1. Heteroarylamine derivatives” (1983):
Calls of active or inactive are those of the source. The rule behind the calls is not given here.

Experiments:
Canis familiaris [1] = species: Canis familiaris; assay: Active dose for antiarrhythmic activity in Harris dog.; type: functional, Canis lupus familiaris, Heart
[2] = target: Muscarinic acetylcholine receptor (Rattus norvegicus) (UniProt P08482+P08483+P08485+P08911+P10980); assay: Percentage inhibition of field stimulated contraction guinea pig ileum (parasympatholytic activity)in presence of test compound (4 mg/L); type: functional, tissue-based; details: Cavia porcellus, target entry is the homologue from another species
Canis familiaris [3] = assay: Active dose for antiarrhythmic activity in Harris dog. (incomplete or no effect to restore sinus rhythm up to 30 mg/kg); low activity; type: functional, organism-based; parameters: dose 30 mg/kg; details: Canis lupus familiaris; Heart
Canis familiaris [4] = assay: Active dose for antiarrhythmic activity in Harris dog. (incomplete restoration of normal sinus rhythm up to 2 mg/kg when death occurred); low activity; type: functional, organism-based; parameters: dose 2 mg/kg; details: Canis lupus familiaris; Heart
Canis familiaris [5] = assay: Active dose for antiarrhythmic activity in Harris dog; inactive to 30 mg/kg; type: functional, organism-based; parameters: dose 30 mg/kg; details: Canis lupus familiaris; Heart
Canis familiaris [6] = assay: Active dose for antiarrhythmic activity in Harris dog.(partial restoration of normal sinus rhythm up to 12 mg/kg when loss of muscle tone occurred); low activity; type: functional, organism-based; parameters: dose 12 mg/kg; details: Canis lupus familiaris
Canis familiaris [7] = assay: Active dose for antiarrhythmic activity in Harris dog; inactive to 22 mg/kg; type: functional, organism-based; parameters: dose 22 mg/kg; details: Canis lupus familiaris; Heart
Canis familiaris [8] = assay: Active dose for antiarrhythmic activity in Harris dog.(partial restoration of normal sinus rhythm up to 9 mg/kg when death occurred); low activity; type: functional, organism-based; parameters: dose 9 mg/kg; details: Canis lupus familiaris; Heart

| Structure (SMILES) | inhibition [2] | Dose (Canis familiaris [1]) | other results |
| --- | --- | --- | --- |
| COc1cc2c(Nc3cc(CN4CCCC4)c(O)c(CN4CCCC4)c3)ncnc2c(OC)c1OC | 14% | – | DOSE (Canis familiaris [3]): Partially active |
| Oc1c(CN2CCCC2)cc(Nc2nncc3ccccc23)cc1CN1CCCC1 | 83% | 1.5 mg/kg | – |
| Cc1cc(Nc2cc(CN3CCCC3)c(O)c(CN3CCCC3)c2)c2ccccc2n1 | – | 11 mg/kg | – |
| COc1nnc(Nc2cc(CN3CCCC3)c(O)c(CN3CCCC3)c2)c2ccccc12 | 84% | – | DOSE (Canis familiaris [4]): Partially active |
| Nc1cc(CN2CCCC2)c(O)c(CN2CCCC2)c1 | 3% | – | DOSE (Canis familiaris [5]): inactive |
| Oc1ccc(Nc2nnc(Cl)c3ccccc23)cc1CN1CCCC1 | 65% | 17 mg/kg | – |
| Oc1c(CN2CCCC2)cc(Nc2nnc(Cl)c3ccccc23)cc1CN1CCCC1 | 76% | 2.5 mg/kg | – |
| CC(=O)Nc1cc(CN2CCCC2)c(O)c(CN2CCCC2)c1 | – | – | DOSE (Canis familiaris [5]): inactive |
| Oc1c(CN2CCCC2)cc(Nc2ccc(Cl)nn2)cc1CN1CCCC1 | 40% | 10.5 mg/kg | – |
| Oc1c(CN2CCCC2)cc(Nc2ncccn2)cc1CN1CCCC1 | 6% | – | DOSE (Canis familiaris [6]): Partially active |

Now from value to compound, other results behind:

| inhibition [2] | Structure (SMILES) | Dose (Canis familiaris [1]) | other results |
| --- | --- | --- | --- |
| 14% | CN(C)Cc1cc(Nc2nncc3ccccc23)cc(CN(C)C)c1O | 14 mg/kg | – |
| 36% | Oc1c(CN2CCCC2)cc(Nc2ccnc3cc(C(F)(F)F)ccc23)cc1CN1CCCC1 | 3 mg/kg | – |
| 48% | Oc1c(CN2CCCC2)cc(Nc2nccc3ccccc23)cc1CN1CCCC1 | 1.1 mg/kg | – |
| 78% | Oc1c(CN2CCCC2)cc(CNc2nnc(Cl)c3ccccc23)cc1CN1CCCC1 | 4.5 mg/kg | – |
| 5% | Oc1c(CN2CCCC2)cc(Nc2ccncc2)cc1CN1CCCC1 | 8.5 mg/kg | – |
| 23% | Oc1ccc(Nc2nncc3ccccc23)cc1 | – | DOSE (Canis familiaris [5]): inactive |
| 50% | Oc1c(CN2CCCC2)cc(Nc2ccc3ccccc3n2)cc1CN1CCCC1 | 6 mg/kg | – |
| 72% | Oc1ccc(Nc2ccc3ccccc3n2)cc1CN1CCCC1 | 11 mg/kg | – |
| 27% | Oc1c(CN2CCCC2)cc(Nc2ccnc3cc(Cl)ccc23)cc1CN1CCCC1 | – | DOSE (Canis familiaris [6]): Partially active |
| 21% | Oc1c(CN2CCCC2)ccc(Nc2ncnc3ccccc23)c1CN1CCCC1 | – | DOSE (Canis familiaris [7]): inactive |
| 19% | Oc1c(CN2CCCC2)cc(Nc2ccnc3ccccc23)cc1CN1CCCC1 | – | DOSE (Canis familiaris [8]): Partially active |
| 93% | Clc1nnc(Nc2cc(CN3CCCC3)cc(CN3CCCC3)c2)c2ccccc12 | 3 mg/kg | – |
| 43% | Oc1c(CN2CCCC2)cc(Nc2ncnc3ccccc23)cc1CN1CCCC1 [CHANGROLIN] | 10.3 mg/kg | – |
| 13% | Oc1ccc(Nc2ncnc3ccccc23)cc1 | – | DOSE (Canis familiaris [5]): inactive |
| 48% | Oc1ccccc1Nc1ncnc2ccccc12 | – | DOSE (Canis familiaris [5]): inactive |
